# According to ChEMBL document CHEMBL1909046, “DrugMatrix in vitro pharmacology data”:
# Legend:
# [1] = molecular target: 5-hydroxytryptamine receptor 4 (Cavia porcellus, UniProt O70528); type: cell membranes, Dunkin-Hartley, Striatum, Membrane; further: in other assays of this panel Not Active means under 50% inhibition at 10 µM
# [2] = DRUGMATRIX: Calcium Channel Type L, Phenylalkylamine radioligand binding (ligand: [3H] (-)-Desmethoxyverapamil (D-888)); type: cell membranes, Rattus norvegicus, Wistar, Brain, Membrane; settings: Not Active = under 50% inhibition at 10 µM
# [3] = molecular target: Histamine H2 receptor (Homo sapiens, UniProt P25021); type: cell membranes, CHO-K1, Membrane; settings: cho-k1; further: in other assays of this panel Not Active means under 50% inhibition at 10 µM
# Histamine H2 receptor, sequence (P25021 whole entry): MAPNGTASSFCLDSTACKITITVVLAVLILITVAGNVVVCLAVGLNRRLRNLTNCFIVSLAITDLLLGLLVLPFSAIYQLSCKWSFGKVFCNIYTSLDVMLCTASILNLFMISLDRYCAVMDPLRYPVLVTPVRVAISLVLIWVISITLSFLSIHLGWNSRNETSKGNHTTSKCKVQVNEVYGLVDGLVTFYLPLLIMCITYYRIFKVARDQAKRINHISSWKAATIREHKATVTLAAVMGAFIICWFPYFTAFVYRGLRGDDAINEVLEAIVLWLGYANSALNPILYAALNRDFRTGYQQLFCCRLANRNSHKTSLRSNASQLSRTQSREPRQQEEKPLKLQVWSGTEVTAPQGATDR
# [4] = DRUGMATRIX: Interleukin IL-1 radioligand binding (ligand: [125I] interleukin 1beta); type: cell membranes, Membrane; settings: nih3t3; Not Active = under 50% inhibition at 10 µM
# [5] = molecular target: T1, Cysteinyl leukotriene receptor 1 (Homo sapiens, UniProt Q9Y271); type: cell membranes, CHO-K1, Membrane; settings: cho-k1; further: in other assays of this panel Not Active means under 50% inhibition at 10 µM
# T1 sequence (Q9Y271 whole entry): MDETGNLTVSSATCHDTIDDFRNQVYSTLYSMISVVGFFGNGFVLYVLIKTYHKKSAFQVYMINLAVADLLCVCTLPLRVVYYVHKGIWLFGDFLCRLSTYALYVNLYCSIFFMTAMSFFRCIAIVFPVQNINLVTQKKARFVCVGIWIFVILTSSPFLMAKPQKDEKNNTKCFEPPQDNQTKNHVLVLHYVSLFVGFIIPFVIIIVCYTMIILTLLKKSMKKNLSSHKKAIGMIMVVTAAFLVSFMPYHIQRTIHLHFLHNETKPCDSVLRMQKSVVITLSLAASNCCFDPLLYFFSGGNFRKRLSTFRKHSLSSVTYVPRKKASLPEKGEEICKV
# [6] = molecular target: T2, Neuropeptide Y receptor type 2 (Homo sapiens, UniProt P49146); type: cell membranes, Membrane; settings: kan-ts; further: in other assays of this panel Not Active means under 50% inhibition at 10 µM
# T2 sequence (P49146 whole entry): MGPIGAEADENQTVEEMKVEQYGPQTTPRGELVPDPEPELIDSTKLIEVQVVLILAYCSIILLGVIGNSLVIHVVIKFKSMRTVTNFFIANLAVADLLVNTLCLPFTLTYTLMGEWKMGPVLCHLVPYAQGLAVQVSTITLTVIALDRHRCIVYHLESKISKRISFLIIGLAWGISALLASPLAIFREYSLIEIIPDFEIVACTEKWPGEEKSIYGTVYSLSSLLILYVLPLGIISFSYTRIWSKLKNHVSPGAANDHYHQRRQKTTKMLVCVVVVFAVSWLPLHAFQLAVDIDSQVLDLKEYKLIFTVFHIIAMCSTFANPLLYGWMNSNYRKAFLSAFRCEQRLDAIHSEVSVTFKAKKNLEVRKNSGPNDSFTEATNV
# 5-hydroxytryptamine receptor 4, sequence (O70528 whole entry): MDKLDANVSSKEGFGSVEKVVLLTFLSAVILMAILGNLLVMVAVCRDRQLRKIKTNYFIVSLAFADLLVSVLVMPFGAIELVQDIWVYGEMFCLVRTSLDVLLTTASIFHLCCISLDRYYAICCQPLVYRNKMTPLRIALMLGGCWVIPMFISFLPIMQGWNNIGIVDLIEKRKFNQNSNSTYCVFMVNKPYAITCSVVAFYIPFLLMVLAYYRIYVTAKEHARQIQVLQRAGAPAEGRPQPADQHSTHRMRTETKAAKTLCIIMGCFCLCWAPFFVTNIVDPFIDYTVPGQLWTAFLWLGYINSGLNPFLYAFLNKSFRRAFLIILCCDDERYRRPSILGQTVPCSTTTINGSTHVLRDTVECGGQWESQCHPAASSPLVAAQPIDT
SMILES,IC50 [1],IC50 [2],Ki [2],IC50 [3],IC50 [4],Ki [4],IC50 [5],IC50 [6],Ki [1],Ki [3],Ki [5],Ki [6],IC50 ([2]; read-out: IC50),Ki ([2]; read-out: Ki)
CC(C)CN(C[C@@H](O)[C@H](Cc1ccccc1)NC(=O)O[C@H]1CCOC1)S(=O)(=O)c1ccc(N)cc1,Not Active,Not Active,Not Active,Not Active,Not Active,Not Active,Not Active,Not Active,–,–,–,–,–,–
c1ccc(Nc2ccc(Nc3ccccc3)cc2)cc1,Not Active,Not Active,Not Active,Not Active,Not Active,Not Active,Not Active,Not Active,–,–,–,–,–,–
COc1cc2c3cc1Oc1cc(ccc1O)C[C@@H]1c4c(cc(OC)c(O)c4Oc4ccc(cc4)C[C@@H]3N(C)CC2)CC[N+]1(C)C.[Cl-],Not Active,Not Active,Not Active,Not Active,Not Active,Not Active,Not Active,Not Active,–,–,–,–,–,–
NC(=O)N1c2ccccc2CCc2ccccc21,Not Active,Not Active,Not Active,Not Active,Not Active,Not Active,Not Active,Not Active,–,–,–,–,–,–
O=C1CC[C@@H](N2C(=O)c3ccccc3C2=O)C(=O)N1,Not Active,Not Active,Not Active,Not Active,Not Active,Not Active,Not Active,Not Active,–,–,–,–,–,–
"Cc1onc(O)c1CC(N)C(=O)O (racemic) [(R,S)-AMPA]",Not Active,Not Active,Not Active,Not Active,Not Active,Not Active,Not Active,Not Active,–,–,–,–,–,–
Cc1ccc2cc3c(ccc4ccccc43)c3c2c1CC3 [3-METHYLCHOLANTHRENE],Not Active,Not Active,Not Active,Not Active,Not Active,Not Active,Not Active,Not Active,–,–,–,–,–,–
CC[C@@]1(O)C[C@H](O[C@H]2C[C@H](N(C)C)[C@H](O[C@H]3C[C@H](O)[C@H](O[C@H]4CCC(=O)[C@H](C)O4)[C@H](C)O3)[C@H](C)O2)c2c(cc3c(c2O)C(=O)c2c(O)cccc2C3=O)[C@H]1C(=O)OC [ACLARUBICIN],Not Active,Not Active,Not Active,Not Active,Not Active,Not Active,Not Active,Not Active,–,–,–,–,–,–
Nc1nc2c(ncn2COCCO)c(=O)[nH]1 [ACYCLOVIR],Not Active,Not Active,Not Active,Not Active,Not Active,Not Active,Not Active,Not Active,–,–,–,–,–,–
Cc1c(C)c2c(c(C)c1O)CC[C@@](C)(CCC[C@H](C)CCC[C@H](C)CCCC(C)C)O2 [ALPHA-TOCOPHEROL],Not Active,Not Active,Not Active,Not Active,Not Active,Not Active,Not Active,Not Active,–,–,–,–,–,–
CN(C)c1nc(N(C)C)nc(N(C)C)n1 [ALTRETAMINE],Not Active,Not Active,Not Active,Not Active,Not Active,Not Active,Not Active,Not Active,–,–,–,–,–,–
Nc1c(Br)cc(Br)cc1CN[C@H]1CC[C@H](O)CC1 [AMBROXOL],Not Active,Not Active,Not Active,Not Active,Not Active,Not Active,Not Active,Not Active,–,–,–,–,–,–
NCCCCCC(=O)O [AMINOCAPROIC ACID],Not Active,Not Active,Not Active,Not Active,Not Active,Not Active,Not Active,Not Active,–,–,–,–,–,–
CCC1(c2ccc(N)cc2)CCC(=O)NC1=O (stereo not given) [AMINOGLUTETHIMIDE],Not Active,Not Active,Not Active,Not Active,Not Active,Not Active,Not Active,Not Active,–,–,–,–,–,–
Cc1ccc(/N=C/N(C)/C=N/c2ccc(C)cc2C)c(C)c1 [AMITRAZ],Not Active,Not Active,Not Active,Not Active,Not Active,Not Active,Not Active,Not Active,–,–,–,–,–,–
CCOC(=O)C1=C(COCCN)NC(C)=C(C(=O)OC)C1c1ccccc1Cl (stereo not given) [AMLODIPINE],Not Active,Not Active,Not Active,Not Active,Not Active,Not Active,Not Active,Not Active,–,–,–,–,–,–
COc1ccc(C[C@H]2NC[C@H](O)[C@H]2OC(C)=O)cc1 [ANISOMYCIN],Not Active,Not Active,Not Active,Not Active,Not Active,Not Active,Not Active,Not Active,Not Active,Not Active,Not Active,Not Active,–,–
Nc1ncn([C@@H]2O[C@H](CO)[C@@H](O)[C@H]2O)c(=O)n1 [AZACITIDINE],Not Active,Not Active,Not Active,Not Active,Not Active,Not Active,Not Active,Not Active,–,–,–,–,–,–
CN(C)C(=O)Oc1cc(OC(=O)N(C)C)cc(C(O)CNC(C)(C)C)c1 (stereo not given) [BAMBUTEROL],Not Active,Not Active,Not Active,Not Active,Not Active,Not Active,Not Active,Not Active,–,–,–,–,–,–
c1ccc2c(c1)c1cccc3ccc4cccc2c4c31 [BENZO[E]PYRENE],Not Active,Not Active,Not Active,Not Active,Not Active,Not Active,Not Active,Not Active,–,–,–,–,–,–
CNCCc1ccccn1 [BETAHISTINE],Not Active,Not Active,Not Active,Not Active,Not Active,Not Active,Not Active,Not Active,–,–,–,–,–,–
CC(C)C(Br)C(=O)NC(N)=O (stereo not given) [BROMISOVALUM],Not Active,Not Active,Not Active,Not Active,Not Active,Not Active,Not Active,Not Active,–,–,–,–,–,–
CCCC1O[C@@H]2C[C@H]3[C@@H]4CCC5=CC(=O)C=C[C@]5(C)[C@H]4[C@@H](O)C[C@]3(C)[C@]2(C(=O)CO)O1 (stereo not given in full) [BUDESONIDE],Not Active,Not Active,Not Active,Not Active,Not Active,Not Active,Not Active,Not Active,–,–,–,–,–,–
CC(NC(C)(C)C)C(=O)c1cccc(Cl)c1 (stereo not given) [BUPROPION],Not Active,Not Active,Not Active,Not Active,Not Active,Not Active,Not Active,Not Active,–,–,–,–,–,–
CN(Cc1ccc(C(C)(C)C)cc1)Cc1cccc2ccccc12 [BUTENAFINE],Not Active,Not Active,Not Active,Not Active,Not Active,Not Active,Not Active,Not Active,–,–,–,–,–,–
C[C@H](CS)C(=O)N1CCC[C@H]1C(=O)O [CAPTOPRIL],Not Active,Not Active,Not Active,Not Active,Not Active,Not Active,Not Active,Not Active,–,–,–,–,–,–
Cc1ccc(-c2cc(C(F)(F)F)nn2-c2ccc(S(N)(=O)=O)cc2)cc1 [CELECOXIB],Not Active,Not Active,Not Active,Not Active,Not Active,Not Active,Not Active,Not Active,–,–,–,–,–,–
O=C(O)CCCc1ccc(N(CCCl)CCCl)cc1 [CHLORAMBUCIL],Not Active,Not Active,Not Active,Not Active,Not Active,Not Active,Not Active,Not Active,–,–,–,–,–,–
CN(C)CCCN1c2ccccc2Sc2ccc(Cl)cc21 [CHLORPROMAZINE],Not Active,–,–,–,Not Active,Not Active,Not Active,Not Active,–,–,–,–,1530 nM,1480 nM
